US20210145951A1, “COMPOSITIONS AND METHODS FOR SHARED NEO-EPITOPE VACCINES” (Epivax Oncology, Inc., priority 2019, published 2021)

Experiments:
CT26 tumor cells = test: CT26 tumor growth and survival after vaccination (Example 1); format: in vivo; conditions: CT26 in Balb/c mice
[1] = tested on: CT26 murine colon tumor cells; test: CT26 tumor growth with or without poly-ICLC (Example 13); format: in vivo, BALB/c mice; conditions: day 25 post-tumor implantation, relative to PBS or poly-ICLC alone
Method: The goal of this experiment was to determine the requirement for the inclusion of the adjuvant poly-ICLC in a peptide vaccine containing ANCER™ selected neoantigens. For this experiment, female BALB/c mice were implanted subcutaneously with 3×10^5 CT26 murine colon tumor cells. Tumor growth was monitored by caliper measurement and mice were sacrificed 45 days after tumor implantation or when tumor volumes reached 2000 mm^3, whichever came first.
Four vaccine groups were tested (n=10 mice/group):
Peptide vaccines were comprised of 20 different ANCER™ selected peptides at a concentration of 5 μg/peptide for a total dose of 100 μg peptide per immunization. Mice were immunized subcutaneously in the opposite flank from tumor implantation twice per week for three weeks, starting at day 4 post-tumor implantation.

With poly-ICLC the “mice reaching a tumor volume of at least 2,000 mm^3 (endpoint) by day 28” value (CT26 tumor cells; N=10) was 60%, the “mice that survived past day 28” value (CT26 tumor cells; N=10) was “Less than 50%” and the “mice that survived the 45 days of the experiment” value (CT26 tumor cells; N=10, in words) was “None”. For the same substance, the “tumor burden compared to Group 1 (PBS)” value (CT26 tumor cells; sc injections days 5-26) was “no reduction in tumor burden” and the “control of tumor growth” value [1] was “no difference in tumor growth kinetics”.
